The values below come from the NIST ThermoML archive (doi:10.1016/j.fluid.2011.11.016).

A short description of this series: xn = mol fraction of the nth substance listed. As to conditions: 298.15 K, 101.3 kPa, Liquid, Vibrating tube method.

As a reminder, the mass density is mass per unit of volume.

± gives the expanded uncertainty stated by the source.

Consider `CCCCCCC` [heptane] + C1CCCCC1, for which, for the setting “x1 = 1”, the mass density came out at 679.57 ± 0.18 kg/m3.

As for `C1CCCCC1` [cyclohexane] + CCCCCCC, the mass density turned out to be 773.88 ± 0.13 kg/m3 (x2 = 0); 766.95 ± 0.14 kg/m3 (x2 = 0.0503); 760.53 ± 0.14 kg/m3 (x2 = 0.0991); 748.16 ± 0.15 kg/m3 (x2 = 0.2021); 735.69 ± 0.15 kg/m3 (x2 = 0.3118); 726.61 ± 0.15 kg/m3 (x2 = 0.3926). The mass density (x2 = 0.5039) came out at 717.21 ± 0.16 kg/m3; the mass density (x2 = 0.666) amounted to 703.79 ± 0.17 kg/m3; the mass density (x2 = 0.7062) was 700.61 ± 0.17 kg/m3; the mass density (x2 = 0.8061) stood at 692.71 ± 0.17 kg/m3; the mass density (x2 = 0.9061) is listed as 685.62 ± 0.18 kg/m3; the mass density (x2 = 0.9539) was 682.6 ± 0.18 kg/m3.
